Results reported in ChEMBL document CHEMBL4422651, “Revisiting tubercidin against kinetoplastid parasites: Aromatic substitutions at position 7 improve activity and reduce toxicity” (Eur J Med Chem, 2019).
Activity calls are given as the source filed them. The calls are words filed in the database; no cut-off is given here.

Assays:
MRC5 = test: Cytotoxicity against human MRC5 cells assessed as reduction in cell viability after 3 days by resazurin dye-based assay; conditions: MRC5, 72 h
[1] = (§1) Inhibition of [3H]-adenosine transport at Trypanosoma brucei Adenosine transporter P2 expressed in pentamidine/diminazene/melaminophenyl arsenical resistant Trypanosoma brucei B48 bloodstream forms after 60 secs by scintillation counting analysis
[2] = Selectivity index, ratio of EC50 for human MRC5 cells to EC50 for Trypanosoma brucei brucei Squib 427; assay type: toxicity; conditions: read-out: Ratio EC50
[3] = tested on: Trypanosoma brucei brucei; test: Antitrypanosomal activity against Trypanosoma brucei brucei Squib 427 after 48 hrs by alamar blue assay; assay type: functional, organism-based; conditions: Squib 427, 48 h
Leishmania infantum = test: Antileishmanial activity against Leishmania infantum amastigotes infected in Swiss mouse primary peritoneal macrophages assessed as reduction in parasite burden after 5 days by Giemsa staining-based microscopic analysis; assay type: functional, organism-based; conditions: 120 h
Peritoneal macrophage = test: Cytotoxicity against Swiss mouse primary peritoneal macrophages assessed as reduction in cell viability after 5 days; assay type: cell-based; conditions: mouse, peritoneal macrophage, 120 h
Trypanosoma brucei [4] = test: Antitrypanosomal activity against isometamidium resistant Trypanosoma brucei ISMR1 after 48 hrs by alamar blue assay; assay type: functional, organism-based; conditions: ISMR1, 48 h
[5] = Selectivity index, ratio of EC50 for human MRC5 cells to EC50 for nifurtimox-sensitive Trypanosoma cruzi Tulahuen CL2 harboring beta-galactosidase; assay type: toxicity; conditions: read-out: Ratio EC50
[6] = (§2) Inhibition of [3H]-adenosine transport at Trypanosoma brucei Adenosine transporter P1 expressed in pentamidine/diminazene/melaminophenyl arsenical resistant Trypanosoma brucei B48 bloodstream forms after 60 secs by scintillation counting analysis
Trypanosoma brucei [7] = test: Antitrypanosomal activity against wild type Trypanosoma brucei Lister 427 after 48 hrs by alamar blue assay; assay type: functional, organism-based; conditions: Lister 427, 48 h
Trypanosoma brucei [8] = test: Antitrypanosomal activity against pentamidine/diminazene/melaminophenyl arsenical resistant Trypanosoma brucei B48 after 48 hrs by alamar blue assay; assay type: functional, organism-based; conditions: B48, 48 h
Trypanosoma cruzi = test: Antitrypanosomal activity against nifurtimox-sensitive Trypanosoma cruzi Tulahuen CL2 harboring beta-galactosidase infected in human MRC5 cells after 7 days by resazurin dye-based assay; assay type: functional, organism-based
Trypanosoma brucei [9] = test: Antitrypanosomal activity against Trypanosoma brucei TbAT1-KO after 48 hrs by alamar blue assay; assay type: functional, organism-based
[10] = Drug metabolism in mouse liver S9 fraction assessed as UGT-mediated metabolism by measuring parent compound remaining at 5 uM measured after 60 mins in presence of UDPGA by UPLC analysis; assay type: ADME, subcellular; conditions: s9, 1 h
UGT [11] = test: Drug metabolism in mouse liver S9 fraction assessed as UGT-mediated metabolism by measuring parent compound remaining at 5 uM measured after 30 mins in presence of UDPGA by UPLC analysis; assay type: ADME, subcellular; conditions: read-out: Stability
CYP450 [12] = test: Drug metabolism in rat liver S9 fraction assessed as CYP450-mediated metabolism by measuring parent compound remaining at 5 uM measured after 30 mins in presence of NADPH by UPLC analysis; assay type: ADME, subcellular; conditions: read-out: Stability
Trypanosoma brucei [13] = test: Resistance factor, ratio of EC50 for isometamidium resistant Trypanosoma brucei […] to EC50 for wild type Trypanosoma brucei Lister 427; assay type: functional
[14] = tested on: UDP-glucuronosyltransferases (UGTs); test: Drug metabolism in human liver S9 fraction assessed as UGT-mediated metabolism by measuring parent compound remaining at 5 uM measured after 30 mins in presence of UDPGA by UPLC analysis; assay type: ADME, subcellular; conditions: s9, 0.5 h
[15] = Drug metabolism in rat liver S9 fraction assessed as UGT-mediated metabolism by measuring parent compound remaining at 5 uM measured after 60 mins in presence of UDPGA by UPLC analysis; assay type: ADME, subcellular; conditions: s9, 1 h
CYP450 [16] = test: Drug metabolism in rat liver S9 fraction assessed as CYP450-mediated metabolism by measuring parent compound remaining at 5 uM measured after 15 mins in presence of NADPH by UPLC analysis; assay type: ADME, subcellular; conditions: read-out: Stability
CYP450 [17] = molecular target: T1, CYP450 (Homo sapiens, UniProt P04798+P05177+P05181+P08684+P10632+P10635+P11509+P11712+P13584+P20813+P20815+P20853+P24462+P24903+P33260+P33261+P51589+P78329+P98187+Q02928+Q08477+Q16678+Q16696+Q5TCH4+Q6VVX0+Q7Z449+Q8TAV3+Q96SQ9+Q9HB55); test: Drug metabolism in human liver S9 fraction assessed as CYP450-mediated metabolism by measuring parent compound remaining at 5 uM measured after 15 mins in presence of NADPH by UPLC analysis; assay type: ADME, subcellular; conditions: read-out: Stability
UGT [18] = test: Drug metabolism in rat liver S9 fraction assessed as UGT-mediated metabolism by measuring parent compound remaining at 5 uM measured immediately in presence of UDPGA by UPLC analysis; assay type: ADME, subcellular; conditions: read-out: Stability
CYP450 [19] = test: Drug metabolism in mouse liver S9 fraction assessed as CYP450-mediated metabolism by measuring parent compound remaining at 5 uM measured after 60 mins in presence of NADPH by UPLC analysis; assay type: ADME, subcellular; conditions: read-out: Stability
CYP450 [20] = test: Drug metabolism in mouse liver S9 fraction assessed as CYP450-mediated metabolism by measuring parent compound remaining at 5 uM measured after 15 mins in presence of NADPH by UPLC analysis; assay type: ADME, subcellular; conditions: read-out: Stability
CYP450 [21] = test: Drug metabolism in mouse liver S9 fraction assessed as CYP450-mediated metabolism by measuring parent compound remaining at 5 uM measured after 30 mins in presence of NADPH by UPLC analysis; assay type: ADME, subcellular; conditions: read-out: Stability
CYP450 [22] = molecular target: T1, CYP450; test: Drug metabolism in human liver S9 fraction assessed as CYP450-mediated metabolism by measuring parent compound remaining at 5 uM measured immediately in presence of NADPH by UPLC analysis; assay type: ADME, subcellular; conditions: read-out: Stability
CYP450 [23] = molecular target: T1, CYP450; test: Drug metabolism in human liver S9 fraction assessed as CYP450-mediated metabolism by measuring parent compound remaining at 5 uM measured after 30 mins in presence of NADPH by UPLC analysis; assay type: ADME, subcellular; conditions: read-out: Stability
UGT [24] = test: Drug metabolism in mouse liver S9 fraction assessed as UGT-mediated metabolism by measuring parent compound remaining at 5 uM measured immediately in presence of UDPGA by UPLC analysis; assay type: ADME, subcellular; conditions: read-out: Stability
[25] = tested on: Trypanosoma brucei rhodesiense; test: Antitrypanosomal activity against Trypanosoma brucei rhodesiense STIB-900 after 48 hrs by alamar blue assay; assay type: functional, organism-based; conditions: STIB-900, 48 h
[26] = Drug metabolism in rat liver S9 fraction assessed as UGT-mediated metabolism by measuring parent compound remaining at 5 uM measured after 30 mins in presence of UDPGA by UPLC analysis; assay type: ADME, subcellular; conditions: s9, 0.5 h
UGT [27] = test: Drug metabolism in rat liver S9 fraction assessed as UGT-mediated metabolism by measuring parent compound remaining at 5 uM measured after 15 mins in presence of UDPGA by UPLC analysis; assay type: ADME, subcellular; conditions: read-out: Stability
Trypanosoma congolense = test: Antitrypanosomal activity against Trypanosoma congolense by resazurin assay; assay type: functional, organism-based
CYP450 [28] = molecular target: T1, CYP450; test: Drug metabolism in human liver S9 fraction assessed as CYP450-mediated metabolism by measuring parent compound remaining at 5 uM measured after 60 mins in presence of NADPH by UPLC analysis; assay type: ADME, subcellular; conditions: read-out: Stability
[29] = Selectivity index, ratio of EC50 for human MRC5 cells to EC50 for Trypanosoma brucei rhodesiense STIB-900; assay type: toxicity; conditions: read-out: Ratio EC50
UGT [30] = molecular target: T2, UGT (Homo sapiens, UniProt O60656+O75310+O75795+P06133+P0DTE4+P0DTE5+P16662+P19224+P22309+P22310+P35503+P35504+P36537+P54855+Q6UWM9+Q9BY64+Q9HAW7+Q9HAW8+Q9HAW9); test: Drug metabolism in human liver S9 fraction assessed as UGT-mediated metabolism by measuring parent compound remaining at 5 uM measured after 60 mins in presence of UDPGA by UPLC analysis; assay type: ADME, subcellular; conditions: read-out: Stability
Trypanosoma brucei [31] = test: Resistance factor, ratio of EC50 for pentamidine/diminazene/melaminophenyl arsenical resistant Trypanosoma brucei B48 to EC50 for wild type Trypanosoma brucei Lister 427; assay type: functional
CYP450 [32] = test: Drug metabolism in mouse liver S9 fraction assessed as CYP450-mediated metabolism by measuring parent compound remaining at 5 uM measured immediately in presence of NADPH by UPLC analysis; assay type: ADME, subcellular; conditions: read-out: Stability
UGT [33] = test: Drug metabolism in mouse liver S9 fraction assessed as UGT-mediated metabolism by measuring parent compound remaining at 5 uM measured after 15 mins in presence of UDPGA by UPLC analysis; assay type: ADME, subcellular; conditions: read-out: Stability
Trypanosoma brucei [34] = test: Resistance factor, ratio of EC50 for Trypanosoma brucei TbAT1-KO to EC50 for wild type Trypanosoma brucei Lister 427; assay type: functional
CYP450 [35] = test: Drug metabolism in rat liver S9 fraction assessed as CYP450-mediated metabolism by measuring parent compound remaining at 5 uM measured after 60 mins in presence of NADPH by UPLC analysis; assay type: ADME, subcellular; conditions: read-out: Stability
CYP450 [36] = test: Drug metabolism in rat liver S9 fraction assessed as CYP450-mediated metabolism by measuring parent compound remaining at 5 uM measured immediately in presence of NADPH by UPLC analysis; assay type: ADME, subcellular; conditions: read-out: Stability
[37] = tested on: UDP-glucuronosyltransferases (UGTs); test: Drug metabolism in human liver S9 fraction assessed as UGT-mediated metabolism by measuring parent compound remaining at 5 uM measured after 15 mins in presence of UDPGA by UPLC analysis; assay type: ADME, subcellular; conditions: s9, 0.25 h
UGT [38] = molecular target: T2, UGT; test: Drug metabolism in human liver S9 fraction assessed as UGT-mediated metabolism by measuring parent compound remaining at 5 uM measured immediately in presence of UDPGA by UPLC analysis; assay type: ADME, subcellular; conditions: read-out: Stability
Trypanosoma brucei [39] = test: as §1
Trypanosoma brucei [40] = test: as §2

Structure (SMILES): Nc1ncnc2c1ccn2[C@@H]1O[C@H](CO)[C@@H](O)[C@H]1O [TUBERCIDIN]
- EC50 (MRC5): 2.23 µM
- Ki [1]: 3.8 µM
- selectivity ratio [2]: 4.6
- EC50 [3]: 480 nM
- EC50 (Leishmania infantum): 130 nM
- Activity (Peritoneal macrophage): Toxic
- EC50 (Trypanosoma brucei [4]): 1700 nM
- selectivity ratio [5]: 6.5
- Ki [6]: 78 µM
- EC50 (Trypanosoma brucei [7]): 150 nM
- EC50 (Trypanosoma brucei [8]): 4300 nM
- EC50 (Trypanosoma cruzi; Tulahuen CL2, MRC5, 168 h): 340 nM
- EC50 (Trypanosoma brucei [9]): 2610 nM

Structure (SMILES): Nc1ncnc2c1c(-c1ccccn1)cn2[C@@H]1O[C@H](CO)[C@@H](O)[C@H]1O
- Stability [10]: 122%
- EC50 (MRC5): 15.1 µM
- remaining at 0.5 h, 5 µM (UGT [11]): 102%
- remaining at 0.5 h, 5 µM (CYP450 [12]): 77%
- Ratio EC50 (Trypanosoma brucei [13]): 2.5
- Ki [1]: 4.57 µM
- selectivity ratio [2]: 49
- Stability [14]: 121%
- Stability [15]: 122%
- remaining at 0.25 h, 5 µM (CYP450 [16]): 89%
- remaining at 0.25 h, 5 µM (CYP450 [17]): 96%
- remaining at 0 min, 5 µM (UGT [18]): 100%
- remaining at 1 h, 5 µM (CYP450 [19]): 1.9%
- remaining at 0.25 h, 5 µM (CYP450 [20]): 36.5%
- remaining at 0.5 h, 5 µM (CYP450 [21]): 12.6%
- remaining at 0 min, 5 µM (CYP450 [22]): 100%
- remaining at 0.5 h, 5 µM (CYP450 [23]): 102%
- remaining at 0 min, 5 µM (UGT [24]): 100%
- EC50 [3]: 310 nM
- EC50 [25]: 31 nM
- Stability [26]: 125%
- remaining at 0.25 h, 5 µM (UGT [27]): 115%
- EC50 (Trypanosoma congolense): 200 nM
- remaining at 1 h, 5 µM (CYP450 [28]): 82%
- selectivity ratio [29]: 487
- EC50 (Trypanosoma brucei [4]): 430 nM
- remaining at 1 h, 5 µM (UGT [30]): 92%
- Ratio EC50 (Trypanosoma brucei [31]): 1.6
- remaining at 0 min, 5 µM (CYP450 [32]): 100%
- remaining at 0.25 h, 5 µM (UGT [33]): 112%
- Ratio EC50 (Trypanosoma brucei [34]): 2.4
- remaining at 1 h, 5 µM (CYP450 [35]): 31%
- Ki [6]: 2.54 µM
- remaining at 0 min, 5 µM (CYP450 [36]): 100%
- Stability [37]: 123%
- EC50 (Trypanosoma brucei [7]): 170 nM
- remaining at 0 min, 5 µM (UGT [38]): 100%
- EC50 (Trypanosoma brucei [8]): 270 nM
- Activity (Trypanosoma cruzi): inactive
- EC50 (Trypanosoma brucei [9]): 400 nM

Structure (SMILES): Nc1ncnc2c1ncn2[C@@H]1O[C@H](CO)[C@@H](O)[C@H]1O
- Km (Trypanosoma brucei [39]): 0.53 µM
- Km (Trypanosoma brucei [40]): 0.16 µM
